Here are results for 20 compounds from patent publication US5523315A, “N-(hydroxyethyl)butanediamide derivatives” (Bio-Mega/Boehringer Ingelheim Research Inc., priority 1993, dated 1996).

For the experiment, the target named is T1, human renin (Homo sapiens, UniProt P00797).
T1 construct: A human plasma pool is used as the source of both the substrate (angiotensinogen) and the enzyme (renin); from tissue; host or cells: pooled human plasma
T1 sequence (P00797 67-406): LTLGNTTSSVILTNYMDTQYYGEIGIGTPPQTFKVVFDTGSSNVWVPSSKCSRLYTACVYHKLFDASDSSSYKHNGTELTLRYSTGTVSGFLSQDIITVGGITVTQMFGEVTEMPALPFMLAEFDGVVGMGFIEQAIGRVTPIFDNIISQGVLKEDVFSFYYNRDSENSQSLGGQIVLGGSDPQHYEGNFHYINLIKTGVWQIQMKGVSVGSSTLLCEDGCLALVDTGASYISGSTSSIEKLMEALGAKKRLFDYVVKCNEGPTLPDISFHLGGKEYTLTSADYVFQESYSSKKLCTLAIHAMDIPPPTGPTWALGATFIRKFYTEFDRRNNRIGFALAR
Nature of the experiment: plasma renin assay (inhibition of human renin; angiotensin I generated, measured by radioimmunoassay). In kind it is biochemical. Conditions: human plasma pool, pH 6.0, 2 h incubation at 37°. How it is done: The assay is performed as follows: The test compound (i.e. the inhibitor) is dissolved in dimethylsulfoxide (1 mM stock solution) and diluted with an aqueous buffer solution of 270 mM 2-(N-morpholino)ethanesulfonic acid and 1% human serum albumin (pH 5.85, also containing dimercaprol and 8-hydroxyquinoline sulfate in accordance with the instructions of the RIA kit noted below) to give an assay mixture in which the final dimethylsulfoxide content is 1% (v/v).
A human plasma pool is used as the source of both the substrate (angiotensinogen) and the enzyme (renin). The reaction is initiated by the addition of 50 μL of human plasma pool to 50 μL of various concentrations of inhibitor in the 1% dimethylsulfoxide assay buffer. The plasma renin activity is measured by the amount of angiotensin I generated at pH 6.0 following a 2 h incubation at 37°.
Quantitation of angiotensin I is performed by radioimmunoassay (RIA kit from New England Nuclear-Dupont, Mississauga, ON, Canada). The enzymatic activity of renin is expressed in ng of angiotensin I generated (/mL/2 h). The extent of inhibition of the reaction is determined from the amount of angiotensin I generated in reference to a control prepared without inhibitor. Nonlinear regression analysis is used to calculate the IC50 values, i.e. the molar concentration of the test compound required to cause a 50% inhibition of the enzyme activity.
Turning to `CC(C)C[C@H](O)[C@H](O)[C@H](CC1CCCCC1)NC(=O)[C@@H](CC(=O)N(CC(=O)N(C)C)CC1(O)CCCCC1)Cc1cccnc1` [Compound 52, N^4-[(1-hydroxycyclohexyl)methyl]-N^4-[2-(dimethylamino)-2-oxoethyl]-N^1-[1(S)-(cyclohexylmethyl)-2(R),3(S)-dihydroxy-5-methylhexyl]-2(R)-(3-pyridinylmethyl)butanediamide], the IC50 is 33 nM.

For the compound `CC(C)C[C@H](O)[C@H](O)[C@H](CC1CCCCC1)NC(=O)[C@@H](CC(=O)NCC1(O)CCCCC1)CC1CC1` [Compound 17, N^4-[(1-hydroxycyclohexyl)methyl]-N^1-[1(S)-(cyclohexylmethyl)-2(R),3(S)-dihydroxy-5-methylhexyl]-2(R)-(cyclopropylmethyl)butanediamide], the IC50 was 94 nM. Against the preceding compound, the IC50 is about 2.8-fold higher.

`CC(C)C[C@H](O)[C@H](O)[C@H](CC1CCCCC1)NC(=O)[C@@H](CC(=O)N(CC1CCCCCC1)CC(C)(C)O)Cc1cscn1` [Compound 51, N^4-(cycloheptylmethyl)-N^4-(2-hydroxy-2-methylpropyl)-N^1-[1(S)-(cyclohexylmethyl)-2(R),3(S)-dihydroxy-5-methylhexyl]-2(R)-(4-thiazolylmethyl)butanediamide]: the IC50 turned out to be 5 nM.

The compound `CC(C)C[C@H](O)[C@H](O)[C@H](CC1CCCCC1)NC(=O)[C@@H](CC(=O)N(Cc1ccccc1)CC(C)(C)O)Cc1csc(N)n1` [Compound 54, N^4-benzyl-N^4-(2-hydroxy-2-methylpropyl)-N^1-[1(S)-(cyclohexylmethyl)-2(R),3(S)-dihydroxy-5-methylhexyl]-2(R)-[(2-amino-4-thiazolyl)methyl]-butanediamide] showed an IC50 of 26 nM.

Turning to `CC(C)C[C@H](O)[C@H](O)[C@H](CC1CCCCC1)NC(=O)[C@@H](CC(=O)N(CC(=O)N(C)CCc1ccccn1)CC1(O)CCCCC1)Cc1csc(N)n1` [Compound 49, N^4-[(1-hydroxycyclohexyl)methyl]-N^4 -{2-{methyl[2-(2-pyridinyl)ethyl]amino}-2-oxoethyl}-N^1-[1(S)-(cyclohexylmethyl)-2(R),3(S)-dihydroxy-5-methylhexyl]-2(R)-[(2-amino-4-thiazolyl)methyl]butanediamide], the midpoint of inhibition, the IC50, lay at 2 nM.

On to `Cc1ccccc1CN(CC(C)(C)O)C(=O)C[C@@H](Cc1csc(N)n1)C(=O)N[C@@H](CC1CCCCC1)[C@@H](O)[C@@H](O)CC(C)C` [Compound 57, N^4-[(2-methylphenyl)methyl]-N^4-(2-hydroxy-2-methylpropyl)-N^1-[1(S)-(cyclohexylmethyl)-2(R),3(S)-dihydroxy-5-methylhexyl]-2(R)-[(2-amino-4-thiazolyl)methyl]butanediamide], for which the IC50 is 37 nM.

The compound `CC(C)C[C@H](O)[C@H](O)[C@H](CC1CCCCC1)NC(=O)[C@@H](CC(=O)N(CC(=O)N(C)C)CC1(O)CCCCC1)CC1CC1` [Compound 23, N^4-[(1-hydroxycyclohexyl)methyl]-N^4-[2-(dimethylamino)-2-oxoethyl]-N^1-[1(S)-(cyclohexylmethyl)-2(R),3(S)-dihydroxy-5-methylhexyl]-2(R)-(cyclopropylmethyl)butanediamide] gave an IC50 of 16 nM.

The compound `CC(C)C[C@H](O)[C@H](O)[C@H](CC1CCCCC1)NC(=O)[C@@H](CC(=O)N(CC1CC1)CC1(O)CCCCC1)CC1CC1` [Compound 16, N^4-(cyclopropylmethyl)-N^4-[(1-hydroxycyclohexyl)methyl]-N^1-[1(S)-(cyclohexylmethyl)-2(R),3(S)-dihydroxy-5-methylhexyl]-2(R)-(cyclopropylmethyl)butanediamide] yielded an IC50 of 89 nM.

`COC1(CN(CC(=O)N(C)CCc2ccccn2)C(=O)C[C@@H](Cc2csc(N)n2)C(=O)N[C@@H](CC2CCCCC2)[C@@H](O)[C@@H](O)CC(C)C)CCCCC1` [Compound 62, N^4-[(1-methoxycyclohexyl)methyl]-N^4 -{2-{methyl[2-(2-pyridinyl)ethyl]amino}-2-oxoethyl}-N^1-[1(S)-(cyclohexylmethyl)-2(R),3(S)-dihydroxy-5-methylhexyl]-2(R)-[(2-amino-4-thiazolyl)methyl]butanediamide] came in with a half-inhibitory concentration (IC50) of 2 nM.

Turning to `CC(C)C[C@H](O)[C@H](O)[C@H](CC1CCCCC1)NC(=O)[C@@H](CC(=O)N(Cc1ccccc1)CC(C)(C)O)CC1CC1` [Compound 21, N^4-benzyl-N^4-(2-hydroxy-2-methylpropyl)-N^1-[1(S)-(cyclohexylmethyl)-2(R),3(S)-dihydroxy-5-methylhexyl]-2(R)-(cyclopropylmethyl)butanediamide], the IC50 turned out to be 130 nM.

`CCC(CC)CN(CC(C)(C)O)C(=O)C[C@@H](Cc1csc(N)n1)C(=O)N[C@@H](CC1CCCCC1)[C@@H](O)[C@@H](O)CC(C)C` [Compound 58, N^4-(2-ethylbutyl)-N^4-(2-hydroxy-2-methylpropyl)-N^1-[1(S)-(cyclohexylmethyl)-2(R),3(S)-dihydroxy-5-methylhexyl]-2(R)-[(2-amino-4-thiazolyl)methyl]butanediamide]: it took 15 nM to reach half-maximal inhibition (IC50).

`CC(C)C[C@H](O)[C@H](O)[C@H](CC1CCCCC1)NC(=O)[C@@H](CC(=O)N(Cc1ccccn1)CC1(O)CCC(=O)CC1)CC1CC1` [Compound 19, N^4-[(1-hydroxy-4-oxocyclohexyl)methyl]-N^4-(2-pyridinylmethyl)-N^1-[1(S)-(cyclohexylmethyl)-2(R),3(S)-dihydroxy-5-methylhexyl]-2(R)-(cyclopropylmethyl)butanediamide]: half-maximal inhibition (IC50) required 100 nM.

Consider `CC(C)C[C@H](O)[C@H](O)[C@H](CC1CCCCC1)NC(=O)[C@@H](CC(=O)N(CC1CCCCC1)CC(C)(C)O)Cc1cscn1` [Compound 36, N^4-(cyclohexylmethyl)-N^4-(2-hydroxy-2-methylpropyl)-N^1-[1(S)-(cyclohexylmethyl)-2(R),3(S)-dihydroxy-5-methylhexyl]-2(R)-(4-thiazolylmethyl)butanediamide], for which the half-inhibitory concentration (IC50) came out at 7.1 nM.

On to `CC(C)C[C@H](O)[C@H](O)[C@H](CC1CCCCC1)NC(=O)[C@@H](CC(=O)N(CC1CCCCC1)CC(C)(C)O)Cc1csc(N)n1` [Compound 41, N^4-(cyclohexylmethyl)-N^4-(2-hydroxy-2-methylpropyl)-N^1-[1(S)-(cyclohexylmethyl)-2(R),3(S)-dihydroxy-5-methylhexyl]-2(R)-[(2-amino-4-thiazolyl)methyl]butanediamide], for which inhibition was half-maximal at 9 nM (IC50).

With `CC(C)C[C@H](O)[C@H](O)[C@H](CC1CCCCC1)NC(=O)[C@@H](CC(=O)N[C@@H](CO)[C@@H](O)c1ccccc1)CC1CC1` [Compound 18, N^4-[2(S)-hydroxy-1(S)-(hydroxymethyl)-2-phenylethyl]-N^1-[1(S)-(cyclohexylmethyl)-2(R),3(S)-dihydroxy-5-methylhexyl]-2(R)-(cyclopropylmethyl)butanediamide], the 50% inhibitory concentration (IC50) amounted to 95 nM.

Compound `CC(C)C[C@H](O)[C@H](O)[C@H](CC1CCCCC1)NC(=O)[C@@H](CC(=O)N(C)CC1(O)CCCCC1)CC1CC1` [Compound 6, N^4-[(1-hydroxycyclohexyl)methyl]-N^4-methyl-N^1-[1(S)-(cyclohexylmethyl)-2(R),3(S)-dihydroxy-5-methylhexyl]-2(R)-(cyclopropylmethyl)butanediamide] came in with an IC50 of 38 nM.

On to `CN(C)C(=O)CN(CC1(O)CCCCC1)C(=O)C[C@@H](CC1CC1)C(=O)N[C@@H](CC1CCCCC1)[C@@H](O)[C@@H]1CC(C)(C)N(C)C1=O` [Compound 38, N^4-[(1-hydroxycyclohexyl)methyl]-N^4-[2-(dimethylamino)-2-oxoethyl]-N^1-[1(S)-(cyclohexylmethyl)-2(S)-hydroxy-2-(1,5,5-trimethyl-2-oxopyrrolidin-3(S)-yl)ethyl]-2(R)-(cyclopropylmethyl)butanediamide], for which it took 15 nM to reach half-maximal inhibition (IC50). Against the preceding compound, the IC50 is about 2.5-fold lower.

The compound `CC(C)C[C@H](O)[C@H](O)[C@H](CC1CCCCC1)NC(=O)[C@@H](CC(=O)NCC(O)c1ccccc1)CC1CC1` (stereo partly drawn) [Compound 10, N^4-(R,S)-(2-hydroxy-2-phenylethyl)-N^1-[1(S)-(cyclohexylmethyl)-2(R),3(S)-dihydroxy-5-methylhexyl]-2(R)-(cyclopropylmethyl)butanediamide] had an IC50 of 74 nM. This IC50 is about 4.9-fold higher than that of the compound before.

On to `CC(C)C[C@H](O)[C@H](O)[C@H](CC1CCCCC1)NC(=O)[C@@H](CC(=O)NC[C@H](O)C1CCCCC1)CC1CC1` [Compound 20 (R), N^4-(R)-(2-cyclohexyl-2-hydroxyethyl)-N^1-[1(S)-(cyclohexylmethyl)-2(R),3(S)-dihydroxy-5-methylhexyl]-2(R)-(cyclopropylmethyl)butanediamide], for which the half-maximal inhibitory concentration (IC50) amounted to 115 nM.

As to `CC(=O)CN(CC1CCCCC1)C(=O)C[C@@H](Cc1cscn1)C(=O)N[C@@H](CC1CCCCC1)[C@@H](O)[C@@H](O)CC(C)C` [Compound 60, N^4-(cyclohexylmethyl)-N^4-(2-oxopropyl)-N^1-[1(S)-(cyclohexylmethyl)-2(R),3(S)-dihydroxy-5-methylhexyl]-2(R)-(4-thiazolylmethyl)butanediamide], the IC50 stood at 2 nM.

Usually IC50 stands for the concentration at which inhibition is half-maximal. Read a low IC50 as inhibition by little substance.
